Experimental data from patent US4246271A, “4-Phenyl-2-thiazolyl-oxamates useful in the treatment of asthma” (priority 1978, dated 1981).

Experiments:
[1] = Solubilities; type: physicochemical; conditions: for Solubility in DMSO: DMSO / dimethyl sulfoxide
[2] = tested on: rats; experiment: Cutaneous passive anaphylaxis test; type: in vivo; conditions: Rattus norvegicus, po; per os, 10 minutes before intravenous injection of antigen + stain; tested at 30, 5, 1 and 0.2 mg/kg, lots of 10 rats; suspension in Tween and water; read-out: ED50 (dose which reduces by one-half the leakage of the stain as compared with the controls)
Experimental: The results are obtained on the cutaneous passive anaphylaxis test in accordance with the method of Broeklehurst W. E. in Handbook of Experimental Immunology, Editor Weiz D. M., Blackwell Scientific Publications, Oxford and Edinborough, pages […] (1967).
(a) Prepare the antiserum on rats sensitized by antigen; inject it intradermally.
(b) Leave a waiting time of 24 to 48 hours.
(c) Administration of the product to be tested per os 10 minutes before operation (d) (intravenous simultaneously with d).
(d) Intravenous injection of the antigen+stain.
(e) Sacrifice 30 minutes afterwards and visualize the antigen-antibody reaction by the leakage of the stain due to the increase of the capillary permeability under the combined influence of histamine and SRSA.
This action is expressed as ED50, i.e., the dose which reduces by one-half the leakage of the stain as compared with the controls.
The tests were carried out in succession with 30, 5, 1 and 0.2 mg/kg on homogeneous lots of 10 rats, with due consideration of their insolubility in water. These compounds are administered in suspension in Tween™ and water.

[3] = tested on: mice; experiment: Acute toxicity after a single oral administration in mice (Miller & Tainter); type: in vivo; conditions: 1000 mg/kg, 10 mice per lot, suspension of Tween 80 + distilled water
Experimental: (§1) (1) Toxicology (acute toxicity after a single oral administration in mice by the method of Miller & Tainter (Proc. Soc. Exper. Biol. Med., 1944, 57, 261)).
(§2) The products are administered in a suspension of Tween 80+distilled water. The mortality is noted at the end of 7 days. The following table summarizes the results obtained: […]

[4] = as above; type: in vivo; conditions: mouse, in vivo, mice, mortality noted at the end of 7 days, read-out: LD50 approximate
Experimental: as §1, §2

Structure (SMILES)	Solubility in ethanol ([1]; ethanol)	Solubility in water [1]	ED50 [2]	Solubility in dimethyl acetamid ([1]; dimethyl acetamid)	Solubility in ethanol (in words) ([1]; ethanol)	Solubility in methyl pyrrolidone [1]	Mortality at end of 7th day [3]	LD50 at 168 h [4]	Solubility in DMSO [1]
Nc1nc(-c2ccc(Cl)cc2)cs1 [4-parachlorophenyl-2-amino-thiazole]	15%	insoluble	–	–	–	–	–	–	–
CCOC(=O)C(=O)Nc1nc(-c2ccccc2)cs1 [Example 1, Ethyl-(4-phenyl-2-thiazolyl)-oxamate]	–	insoluble	1 mg/kg	20%	insoluble	25%	1	> 1000 mg/kg	–
CCOC(=O)C(=O)Nc1nc(-c2ccc(Cl)cc2)cs1 [Example 2, Ethyl-(4-p-chlorophenyl-2-thiazolyl)-oxamate]	–	insoluble	–	–	insoluble	4%	0	> 1000 mg/kg	1%
CCOC(=O)C(=O)Nc1nc(-c2ccc(OC)cc2)cs1 [Example 3, Ethyl-(4-paramethoxyphenyl-2-thiazolyl)-oxamate]	–	insoluble	2 mg/kg	–	insoluble	50%	1	> 1000 mg/kg	50%
Cc1cccc(-c2csc(NC(=O)C(=O)OCc3ccccc3)n2)c1 [Example 4, Benzyl-(4-metamethylphenyl-2-thiazolyl)-oxamate]	–	–	–	–	–	–	1	> 1000 mg/kg	–
O=C(Nc1nc(-c2ccccc2Br)cs1)C(=O)OCc1ccccc1 [Example 5, Benzyl-(4-orthobromophenyl-2-thiazolyl)-oxamate]	–	–	–	–	–	–	2	> 1000 mg/kg	–
